{"source": "patent US20250312408A1", "about": "“NAP FOR SEX-SPECIFIC TREATMENT OF DISEASES” (RAMOT AT TEL-AVIV UNIVERSITY LTD., priority 2021, published 2025)", "key": {"[1]": {"test_system": "PSP patients", "assay": "Phase 2/3 davunetide vs placebo trial in PSP, re-evaluated separating males and females", "type": "in vivo, human", "protocol": "In this example we used results of a clinical trial performed as described in Boxer et al. Shortly, in a double blind, parallel group, phase 2/3 trial, participants were randomly assigned with permuted blocks in a 1:1 ratio to davunetide (NAP, having amino acid sequence […] set forth as SEQ ID NO: 1, 30 mg twice daily, intranasally) or placebo for 52 weeks at 48 centers in Australia, Canada, France, Germany, the UK, and the USA. Participants met the modified Neuroprotection and Natural History in Parkinson Plus Syndrome study criteria for PSP. Primary endpoints were the change from baseline in PSP Rating Scale (PSPRS, 28 items, 6 categories, 0=normal, 100=most disability) and Schwab and England Activities of Daily Living scale (SEADL, 11-point rating scale, 0=vegetative, 100%/=completely independent, 10% increments) at up to 52 weeks. Data collection was at week 0, 6, 13, 26, 39 and 52. All participants and study personnel were masked to treatment assignment. Analysis was by intention to treat. The trial is registered with Clinicaltrials.gov, number NCT01110720. 313 participants were randomly assigned to davunetide (n=157) or to placebo (n=156), and 241 (77%) completed the study (118 and […] in the davunetide and placebo groups, respectively). A secondary outcome was brain ventricular volume as measured with boundary shift integral analysis of T1-weighted magnetic resonance imaging (MRI) scans, mostly collected at week 0 and 52. At the same time, selected patients were also subjected to lumbar puncture and assessment of Tau content and Tau hyperphosphorylation in the cerebrospinal fluid (CSF).\nTo further understand disease progression, sex/age/baseline differences and drug influence, we re-evaluated study results, separating males and females, and assessing the primary and secondary endpoints. In this respect, we further assessed individually the 6 disability domains of the PSPRS, namely: daily activities (by history, seven items with a total maximum score of 24), behavior (mentation, emotional, interference with activity of daily living, maximum score of 16), bulbar (speech and swallowing, maximal score of 8), ocular motor (eye and eyelid activity, 16 points), limb motor (fine motor skills including tremor, 16 points) and gait/midline (gross motor skills, 20 points) https://www.physio-pedia.com/Progressive_Supranuclear_Palsy_Rating_Scale_(PSP-RS).\nStatistical considerations: To include the ventricle volumetric measures, the cohort was composed of female and male PSP patients treated with davunetide or placebo (sample sizes for sex-treatment groups at 52 weeks of treatment: 48-55), outcome variables included ventricular volume (will be referred to as volume), PSPRS and SEADL assessed at study initiation and follow up to 52 weeks after twice daily treatment.\nData analysis was performed using Graph Pad Prism 7.0 software (see FIGS. 1 and 4). Other statistical tests and visualizations were made in R version 4.2.1 (2022-06-23) with the base library, ggplot2 and ggplot2 extension packages. Correlation plots statistics (FIGS. 2, 3 and 5) were computed using the standard Pearson method. The volume change (from FIG. 3) is the difference between the baseline and week-52 measurements. PSPRS, SEADL and ventricular volume in figures (FIG. 5) are represented by differences between the baseline and week-52 measurements, as a percentage of the baseline measurement. FIGS. 6 and 7 give the absolute changes overtime, due to the non-normal distribution of most parameters, statistical significance was measured using the Wilcoxon test. Only extreme values (defined as 3*IQR deviation from the penultimate top/bottom quantiles), were removed from the final calculations. There were only 11 observations that were considered extreme and their influence on our results was insignificant. FIG. 8 representing the geriatric depression scale measure (GDS) was prepared using excel."}, "[2]": {"test_system": "subjects suffering from amnestic mild cognitive impairment (aMCI)", "assay": "aMCI clinical trial, CANTAB Delayed Match-to-Sample (DMTS) test, men and women analysed separately", "type": "in vivo, human", "conditions": "for effect of treatment on aMCI symptoms: males, 30 mg/day; for DMTS change vs placebo, Student's t test: men only", "protocol": "The subject's task is to select the pattern that matches the original sample, here depicted after a 12 s interval. Thus, subjects suffering from aMCI were treated with either 5 mg daily or 15 mg twice daily (BID) by intranasal davunetide administration (1 or three puffs of the same strength davunetide solution). Treatment was for 12 weeks and testing was at baseline and every four weeks, including also 4 weeks after cessation of treatment. When analyzing the data, we separated here men and women for the first time as outlined below. […] We further conclude that much higher dose are required, especially in females."}, "[3]": {"test_system": "subjects with schizophrenia", "assay": "Schizophrenia clinical trial, UCSD Performance-based Skills Assessment (UPSA), analysed separately for males and females", "type": "in vivo, human", "protocol": "Briefly, sixty-three subjects with schizophrenia received davunetide at one of two different doses (5, 30 mg/day) or placebo for 12 weeks in a multicenter, double-blind, parallel-group randomized clinical trial. The MATRICS Consensus Cognitive Battery (MCCB) assessed cognitive effects. The UCSD Performance-based Skills Assessment (UPSA) with maximal score of 100 and the Schizophrenia Cognition Rating Scale (SCoRS) assessed functional capacity. Subjects continued their current antipsychotic treatment during the trial. For UPSA, there was a significant main effect of treatment across study arms (p=0.048). Between-group effect size (d) values were 0.74 and 0.48, favoring the 5 and 30 mg doses, respectively.\nConsidering the results obtained for PSP and the involvement of ADNP in both diseases, we analyzed the data separately for males and females with 7-16 subjects per group. […] All in all, the 5 mg daily dose was beneficial for women as detected after 6 and 12 weeks of treatment."}, "[4]": {"test_system": "Hace1", "assay": "Hippocampal RNA sequencing of Adnp mutated (HTR (Tyr)) mice", "type": "in vivo", "text": "In this model, gait deficits were accentuated in females, and ameliorated by NAP treatment. We discovered a surprising mirror imaging in NAP peptide (davunetide) brain (hippocampus) action in the treated mice as a dependence on mice sex. […] Hace1 is associated with ataxia and Huntington disease and is also involved in depression and Alzheimer's disease. NAP protection (FIG. 11) further attests to sex-dependent treatments of the diseases associated or mediated with Hace1."}, "[5]": {"test_system": "subjects suffering from amnestic mild cognitive impairment (aMCI)", "conditions": "sexes not separated; cited from earlier work"}, "[6]": {"test_system": "subjects with schizophrenia", "conditions": "cited from earlier work; for UPSA score vs placebo (Javitt et al.): 5 mg daily dose; for UPSA between-group effect size (d): 12 weeks, men and women mixed (Javitt et al.)"}, "[7]": {"test_system": "Adnp mutated (HTR (Tyr)) mice", "conditions": "deficits accentuated in females (Karmon et al.); cited from earlier work"}, "[8]": {"test_system": "PSP patients", "conditions": "cited from earlier work; for PSP trial outcome, sexes not separated (Boxer et al.): 30 mg twice daily, 52 weeks, whole population"}, "[9]": {"conditions": "males, from week 26 on, 30 mg twice daily"}, "[10]": {"conditions": "woman cohort, very few individuals, exploratory"}}, "note": "Where two headings read alike, the source gives them in different places."}
{"molecule": "CC[C@H](C)[C@H](NC(=O)[C@H](CO)NC(=O)[C@@H](NC(=O)[C@@H]1CCCN1C(=O)[C@H](C)NC(=O)[C@@H](N)CC(N)=O)C(C)C)C(=O)N1CCC[C@H]1C(=O)N[C@@H](CCC(N)=O)C(=O)O", "note": "[davunetide]", "values": [{"measurement": "CGIds (Clinical Global Impression of Disease Severity)", "setting": "[1]; davunetide-treated males, P=0.013", "value": "deteriorated"}, {"measurement": "adverse effects on all other PSPRS domains", "setting": "[1]; females", "value": "no adverse effects"}, {"measurement": "ventricular volume increase correlating with baseline ventricular volume", "setting": "[1]; females, 30 mg twice daily intranasally, 52 weeks", "value": "complete protection"}, {"measurement": "PSPRS change vs placebo", "setting": "[1]; females, 52 weeks, 30 mg twice daily", "value": "trended toward significant improvement"}, {"measurement": "disease progression in PSPRS mental behavior domain", "setting": "[1]; females, over 52 weeks", "value": "almost halted"}, {"measurement": "SEADL change from baseline vs placebo", "setting": "[1]; females, starting at week 39 and continuing on 52, P=0.0187 and P=0.00537", "value": "significant protective effect"}, {"measurement": "effect on oculomotor activities (PSPRS domain)", "setting": "[1]; females, week 6, P=0.0127", "value": "transient adverse effect"}, {"measurement": "GDS score (geriatric depression) compared to placebo", "setting": "[1]; females, week 52, Wilcoxon, P=0.023", "value": "improved significantly"}, {"measurement": "bulbar domain of the PSPRS (dysarthria, dysphagia) vs placebo", "setting": "[1]; females, week 52, P=0.0222", "value": "significant protective effect"}, {"measurement": "limb motor skills (PSPRS domain) vs placebo", "setting": "[1]; females, P=0.0838", "value": "partially protected"}, {"measurement": "ventricular volume change vs baseline ventricular volume", "setting": "[1]; males, 30 mg twice daily intranasally, 52 weeks", "value": "no drug effects"}, {"measurement": "PSPRS change compared to the placebo group", "setting": "[1]; [9]", "value": "significant increase in PSPRS"}, {"measurement": "SEADL change compared to the placebo group", "setting": "[1]; [9]", "value": "decrease in SEADL"}, {"measurement": "percent of baseline ventricular volume change with age vs placebo", "setting": "[1]; men, 30 mg twice daily intranasally, 52 weeks", "value": "No differences"}, {"measurement": "percent of baseline ventricular volume change with age vs placebo", "setting": "[1]; men, 30 mg twice daily intranasally, 52 weeks, listed as NAP peptide", "value": "not observed in males"}, {"measurement": "phosphorylated Tau in the cerebrospinal fluid (CSF) compared to placebo", "setting": "[1]; [10]", "value": "trends in total Tau and phosphorylated Tau reduction"}, {"measurement": "total Tau in the cerebrospinal fluid (CSF) compared to placebo", "setting": "[1]; [10]", "value": "trends in total Tau and phosphorylated Tau reduction"}, {"measurement": "percent of baseline ventricular volume change with age vs placebo", "setting": "[1]; women (older woman patients), 30 mg twice daily intranasally, 52 weeks", "value": "significant neuroprotective effect"}, {"measurement": "percent of baseline ventricular volume change with age vs placebo", "setting": "[1]; women (older woman patients), 30 mg twice daily intranasally, 52 weeks, listed as NAP peptide", "value": "reduced the increase in the size of brain ventricles"}, {"measurement": "effect of treatment on aMCI symptoms", "setting": "[2]; listed as NAP", "value": "significant improvement"}, {"measurement": "effect of treatment on aMCI symptoms", "setting": "[2]; listed as NAP peptide", "value": "statistically significant effect"}, {"measurement": "DMTS change vs placebo, Student's t test", "setting": "[2]; test week 8", "value": "significant difference"}, {"measurement": "DMTS change vs placebo, Student's t test", "setting": "[2]; week 4 and 16", "value": "trending"}, {"measurement": "UPSA change, average", "setting": "[3]; men, 5 mg daily", "value": 7.4, "unit": "points"}, {"measurement": "effect on UPSA", "setting": "[3]; men, 5 mg daily, especially after 6 weeks", "value": "effective"}, {"measurement": "effect on UPSA", "setting": "[3]; men, 15 mg twice daily (30 mg/day), 12 weeks", "value": "significant results"}, {"measurement": "effect on UPSA", "setting": "[3]; men, 15 mg twice daily (30 mg/day), 12 weeks, listed as NAP", "value": "significant improvement"}, {"measurement": "UPSA change, mean", "setting": "[3]; women, 5 mg daily, 12 weeks", "value": 14.9, "unit": "points"}, {"measurement": "effect on UPSA", "setting": "[3]; women, 5 mg daily, after 6 and 12 weeks", "value": "beneficial"}, {"measurement": "UPSA improvement", "setting": "[3]; women, 5 mg daily, after 12 weeks", "value": 15, "unit": "%"}, {"measurement": "effect on UPSA", "setting": "[3]; women, 15 mg twice daily (30 mg/day), week 12, vs 5 mg/day P=0.002", "value": "significantly lower effect"}, {"measurement": "effect on UPSA", "setting": "[3]; women, 15 mg twice daily (30 mg/day), week 12, vs 5 mg/day P=0.002, listed as NAP", "value": "not observed"}, {"measurement": "Hace1 gene/mRNA intron retention event (aberrant alternative splicing)", "setting": "[4]; ADNP mutated HTR males, brain hippocampal samples", "value": "corrected"}, {"measurement": "Hace1 expression as a consequence of NAP treatment", "setting": "[4]; male vs female Adnp mutated mice, hippocampus", "value": "sex-specific opposite expression"}, {"measurement": "cognitive score in aMCI (Morimoto et al.)", "setting": "[5]", "value": "cognitive score enhancement"}, {"measurement": "UPSA score vs placebo (Javitt et al.)", "setting": "[6]; sexes mixed", "value": "significantly more effective"}, {"measurement": "UPSA score vs placebo (Javitt et al.)", "setting": "[6]; sexes mixed, listed as NAP", "value": "significantly higher"}, {"measurement": "UPSA between-group effect size (d)", "setting": "[6]; 5 mg dose", "value": 0.74}, {"measurement": "UPSA score vs 5 mg daily dose and placebo (Javitt et al.)", "setting": "[6]; 30 mg (15 mg twice daily), sexes mixed", "value": "insignificantly different"}, {"measurement": "UPSA between-group effect size (d)", "setting": "[6]; 30 mg dose", "value": 0.48}, {"measurement": "daily living activities in schizophrenia patients (Javitt et al.)", "setting": "[6]; sexes mixed", "value": "protection of daily living activities"}, {"measurement": "gait deficits", "setting": "[7]", "value": "ameliorated"}, {"measurement": "PSP trial outcome, sexes not separated (Boxer et al.)", "setting": "[8]", "value": "did not meet its endpoints"}, {"measurement": "PSP trial outcome, sexes not separated (Boxer et al.)", "setting": "[8]; listed as Davunetide", "value": "not an effective treatment"}, {"measurement": "safety in the PSP trial (Boxer et al.)", "setting": "[8]; in vivo", "value": "showing safety"}]}
